The results in this text go back to ChEMBL document CHEMBL1139468, “Virtual screening of novel CB2 ligands using a comparative model of the human cannabinoid CB2 receptor” (J Med Chem, 2005).

One assay concerns the target Cannabinoid receptor 2 (Homo sapiens, UniProt P34972). Description: Agonist activity at human CB2 receptor transfected in CHO cells by [35]GTPgamma binding assay. The format is cell-based.
The target in assay [1] is T1, Fatty-acid amide hydrolase 1 (Homo sapiens) (UniProt O00519).
T1 sequence (whole entry): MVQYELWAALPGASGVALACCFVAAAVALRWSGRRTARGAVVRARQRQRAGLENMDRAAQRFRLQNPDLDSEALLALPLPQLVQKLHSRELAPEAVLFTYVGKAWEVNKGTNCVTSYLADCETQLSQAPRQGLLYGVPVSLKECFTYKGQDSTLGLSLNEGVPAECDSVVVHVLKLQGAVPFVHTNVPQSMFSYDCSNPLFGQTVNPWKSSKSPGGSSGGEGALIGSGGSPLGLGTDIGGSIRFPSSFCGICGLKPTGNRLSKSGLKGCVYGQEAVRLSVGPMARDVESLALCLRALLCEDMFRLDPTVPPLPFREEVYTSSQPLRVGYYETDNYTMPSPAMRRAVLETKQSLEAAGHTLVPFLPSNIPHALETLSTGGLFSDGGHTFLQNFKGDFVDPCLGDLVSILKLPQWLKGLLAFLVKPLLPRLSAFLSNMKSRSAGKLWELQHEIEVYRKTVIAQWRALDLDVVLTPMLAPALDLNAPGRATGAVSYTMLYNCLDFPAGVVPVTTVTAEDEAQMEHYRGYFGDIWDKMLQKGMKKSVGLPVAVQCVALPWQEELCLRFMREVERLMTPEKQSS
Description: Inhibition of FAAH.

A short description of assay [2]: Inhibition of methionine gamma-lyase.
In assay [3] the target is Cannabinoid receptor 1 (Rattus norvegicus) (UniProt P20272). Description: Activity at CB1 receptor in rat cerebellar membrane by [35]GTPgamma binding assay. Type of assay: functional, cell membranes. The note with it: Cerebellum.

Activity calls are given as the source filed them. No cut-off for these calls is given here.

Cannabinoid receptor 2, sequence (P34972 whole entry): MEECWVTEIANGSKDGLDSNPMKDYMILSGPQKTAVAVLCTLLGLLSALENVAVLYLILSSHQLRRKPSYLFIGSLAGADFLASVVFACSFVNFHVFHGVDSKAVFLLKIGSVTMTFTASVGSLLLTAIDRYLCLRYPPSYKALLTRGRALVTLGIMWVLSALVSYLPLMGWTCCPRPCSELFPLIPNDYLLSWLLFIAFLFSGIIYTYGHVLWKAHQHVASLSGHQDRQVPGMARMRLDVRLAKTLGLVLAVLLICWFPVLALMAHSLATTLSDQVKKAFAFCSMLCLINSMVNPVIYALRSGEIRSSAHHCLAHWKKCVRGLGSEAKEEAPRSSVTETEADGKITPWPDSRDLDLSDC
Cannabinoid receptor 1 (Rattus norvegicus), sequence (P20272 whole entry): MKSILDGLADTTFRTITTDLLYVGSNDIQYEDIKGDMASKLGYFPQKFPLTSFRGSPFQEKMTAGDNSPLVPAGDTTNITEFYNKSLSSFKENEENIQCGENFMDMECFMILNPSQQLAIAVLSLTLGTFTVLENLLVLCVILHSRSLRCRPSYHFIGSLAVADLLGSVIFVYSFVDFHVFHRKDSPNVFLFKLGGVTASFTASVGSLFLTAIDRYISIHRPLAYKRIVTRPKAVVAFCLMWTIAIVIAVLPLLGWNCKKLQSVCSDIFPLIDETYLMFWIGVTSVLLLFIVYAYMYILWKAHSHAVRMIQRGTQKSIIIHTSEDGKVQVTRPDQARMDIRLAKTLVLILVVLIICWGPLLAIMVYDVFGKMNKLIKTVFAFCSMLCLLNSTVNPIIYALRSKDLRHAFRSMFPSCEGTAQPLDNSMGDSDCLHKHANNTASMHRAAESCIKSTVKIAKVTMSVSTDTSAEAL

For the compound `CCCCCCC(C)(C)c1cc(O)c2c(c1)OC(C)(C)[C@H]1CC=C(CO)C[C@H]21`, the Emax (as a rule, the size of the effect at its maximum, as opposed to the concentration needed) on Cannabinoid receptor 2 worked out at 103%.

Consider `O=C(c1cccc(C(F)(F)F)c1)c1nccc2ccccc12`, for which the result in assay [1], in assay [2] and in assay [3] was inactive. Besides, the EC50 – broadly, the midpoint of the concentration-response curve – at Cannabinoid receptor 2 was 5.01 µM. For the same compound, at Cannabinoid receptor 2, the Emax is 53%.
